Experiments:
[1] = target: T1, RAC-alpha serine/threonine-protein kinase (Homo sapiens, UniProt P31749); experiment: Inhibition of Akt1 at 5.33 uM
[2] = Half life in mouse at 30 mg/kg; type: ADME, organism-based; design: dose 30 mg/kg; settings: in vivo
[3] = Volume of distribution in mouse at 30 mg/kg; type: ADME, organism-based; design: dose 30 mg/kg; settings: in vivo, read-out: Vdss
[4] = Plasma clearance in mouse at 30 mg/kg; type: ADME, organism-based; design: dose 30 mg/kg
[5] = Cmax in mouse at 30 mg/kg; type: ADME, organism-based; design: dose 30 mg/kg; settings: in vivo
[6] = Oral bioavailability in mouse at 30 mg/kg; type: ADME, organism-based; settings: in vivo
[7] = Half life in dog at 2.5 mg/kg; type: ADME, organism-based, Canis lupus familiaris; design: dose 2.5 mg/kg; settings: in vivo
[8] = Volume of distribution in dog at 2.5 mg/kg; type: ADME, organism-based, Canis lupus familiaris; design: dose 2.5 mg/kg; settings: in vivo, read-out: Vdss
[9] = Plasma clearance in dog at 2.5 mg/kg; type: ADME, organism-based, Canis lupus familiaris; design: dose 2.5 mg/kg
[10] = Cmax in dog at 2.5 mg/kg; type: ADME, organism-based, Canis lupus familiaris; design: dose 2.5 mg/kg; settings: in vivo
[11] = Oral bioavailability in dog at 2.5 mg/kg; type: ADME, organism-based, Canis lupus familiaris; settings: in vivo
[12] = Half life in monkey at 2.5 mg/kg; type: ADME, organism-based, Macaca mulatta; design: dose 2.5 mg/kg; settings: rhesus monkey, in vivo
[13] = Volume of distribution in monkey at 2.5 mg/kg; type: ADME, organism-based, Macaca mulatta; design: dose 2.5 mg/kg; settings: rhesus monkey, in vivo, read-out: Vdss
[14] = Plasma clearance in monkey at 2.5 mg/kg; type: ADME, organism-based, Macaca mulatta; design: dose 2.5 mg/kg; settings: rhesus monkey
[15] = Cmax in monkey at 2.5 mg/kg; type: ADME, organism-based, Macaca mulatta; design: dose 2.5 mg/kg; settings: rhesus monkey, in vivo
[16] = Oral bioavailability in monkey at 2.5 mg/kg; type: ADME, organism-based, Macaca mulatta; settings: rhesus monkey, in vivo
[17] = Half life in rat at 5 mg/kg; type: ADME, organism-based; design: dose 5 mg/kg; settings: in vivo
[18] = Volume of distribution in rat at 5 mg/kg; type: ADME, organism-based; design: dose 5 mg/kg; settings: in vivo, read-out: Vdss
[19] = Plasma clearance in rat at 5 mg/kg; type: ADME, organism-based; design: dose 5 mg/kg
[20] = Cmax in rat at 5 mg/kg; type: ADME, organism-based; design: dose 5 mg/kg; settings: in vivo
[21] = Oral bioavailability in rat at 5 mg/kg; type: ADME, organism-based; settings: in vivo
[22] = target: T1, RAC-alpha serine/threonine-protein kinase; experiment: Inhibition of Akt1 at 0.99 uM
MIA PaCa-2 = experiment: Antiproliferative activity against MiaPaCa-2 cells by MTT assay; type: functional, cell-based; settings: Homo sapiens
[23] = Cmax in mouse at 10 mg/kg; type: ADME, organism-based; design: dose 10 mg/kg; settings: in vivo
[24] = Oral bioavailability in mouse at 10 mg/kg; type: ADME, organism-based; settings: in vivo
[25] = Half life in mouse at 10 mg/kg; type: ADME, organism-based; design: dose 10 mg/kg; settings: in vivo
[26] = Volume of distribution in mouse at 10 mg/kg; type: ADME, organism-based; design: dose 10 mg/kg; settings: in vivo, read-out: Vdss
[27] = Plasma clearance in mouse at 10 mg/kg; type: ADME, organism-based; design: dose 10 mg/kg
[28] = target: T1, RAC-alpha serine/threonine-protein kinase; experiment: Inhibition of Akt1 using 10 uM ATP
[29] = target: T1, RAC-alpha serine/threonine-protein kinase; experiment: Inhibition of Akt1 at 50 uM

T1 sequence (P31749 whole entry): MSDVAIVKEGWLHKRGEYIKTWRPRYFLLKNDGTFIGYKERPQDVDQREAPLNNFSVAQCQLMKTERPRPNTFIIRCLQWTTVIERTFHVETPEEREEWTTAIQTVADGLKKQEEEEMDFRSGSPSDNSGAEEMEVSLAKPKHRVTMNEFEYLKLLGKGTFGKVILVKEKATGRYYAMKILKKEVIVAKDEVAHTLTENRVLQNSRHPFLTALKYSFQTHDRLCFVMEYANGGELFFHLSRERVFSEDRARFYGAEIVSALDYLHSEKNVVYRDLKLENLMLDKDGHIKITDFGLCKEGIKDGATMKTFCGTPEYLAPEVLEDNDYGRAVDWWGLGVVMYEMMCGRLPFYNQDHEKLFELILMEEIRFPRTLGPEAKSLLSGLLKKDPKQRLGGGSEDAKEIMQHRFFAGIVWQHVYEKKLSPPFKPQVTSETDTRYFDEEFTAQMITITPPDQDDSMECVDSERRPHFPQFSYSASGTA

In the case of `N[C@H](COc1cc(/C=C/c2ccncc2)ccn1)Cc1c[nH]c2ccccc12`, the inhibition [1] is reported as 16%.

In the case of `N[C@H](COc1cncc(/C=C/c2ccccc2)c1)Cc1c[nH]c2ccccc12`, the inhibition [1] is reported as 17%.

`N[C@H](COc1cnc(Cl)c(/C=C/c2ccncc2)c1)Cc1c[nH]c2ccccc12` showed a half-life [2] of 48 min, a Vd [3] of 4.8 L/kg and a clearance [4] of 68.3 mL/min/kg. The Cmax [5] was 940 ng/mL, the bioavailability [6] was 11% and the half-life [7] was 324 min. It also gave a Vd [8] of 11.1 L/kg, a clearance [9] of 23.3 mL/min/kg and a Cmax [10] of 120 ng/mL. It also gave a bioavailability [11] of 45%, a half-life [12] of 180 min and a Vd [13] of 4.2 L/kg. It also gave a clearance [14] of 16.2 mL/min/kg, a Cmax [15] of 60 ng/mL and a bioavailability [16] of 12%. The half-life [17] was 186 min, the Vd [18] was 9.9 L/kg and the clearance [19] was 36.7 mL/min/kg. For the same compound, the Cmax [20] was 60 ng/mL and the bioavailability [21] was 17%.

With `N[C@H](COc1cncc(/C=C/c2ccncc2)c1)C(=O)Nc1ccc2ccccc2c1` the inhibition [1] was 4%.

In the case of `N[C@@H](Cc1c[nH]cn1)C(=O)Nc1cncc(/C=C/c2ccncc2)c1`, the inhibition [22] is reported as 73%.

`N[C@H](COc1cncc(/C=C/c2ccncc2)c1)Cc1c[nH]c2ccccc12` gave a half-life [2] of 48 min, a Vd [3] of 6.5 L/kg and a clearance [4] of 95 mL/min/kg. It also gave a Cmax [5] of 2780 ng/mL, a bioavailability [6] of 39% and a half-life [7] of 192 min. The Vd [8] was 12.8 L/kg, the clearance [9] was 41.7 mL/min/kg and the Cmax [10] was 100 ng/mL. It also gave a bioavailability [11] of 52%, a half-life [12] of 222 min and a Vd [13] of 9.1 L/kg. It also gave a clearance [14] of 26.7 mL/min/kg, a Cmax [15] of 40 ng/mL and an IC50 (MIA PaCa-2) of 12 µM. The bioavailability [16] was 12%, the half-life [17] was 186 min and the Vd [18] was 5.2 L/kg. For the same compound, the clearance [19] was 20 mL/min/kg, the Cmax [20] was 300 ng/mL and the bioavailability [21] was 21%.

With `N[C@H](CNc1cnc(Cl)c(/C=C/c2ccncc2)c1)Cc1c[nH]c2ccccc12` the Cmax [23] was under 20 ng/mL, the bioavailability [24] was 0% and the half-life [25] was 36 min. The Vd [26] was 9.5 L/kg and the clearance [27] was 190 mL/min/kg.

In the case of `N[C@H](COc1cccc(/C=C/c2ccncc2)c1)Cc1c[nH]c2ccccc12`, the inhibition [1] is reported as 35%.

Compound `C(=C\c1cncc(OCCCc2c[nH]c3ccccc23)c1)/c1ccncc1` has an IC50 [28] of over 50 µM.

`N[C@H](COc1cncc(/C=C/c2ccncc2)c1)C(=O)O` showed an inhibition [1] of 11%.

`N[C@H](COc1cnccc1/C=C/c1ccncc1)Cc1ccccc1` showed an inhibition [29] of 29%.

With `N[C@H](CCc1cnc(Cl)c(/C=C/c2ccncc2)c1)Cc1c[nH]c2ccccc12` the Cmax [23] was 90 ng/mL, the bioavailability [24] was under 10% and the half-life [25] was 12 min. The Vd [26] was 4.9 L/kg and the clearance [27] was 288 mL/min/kg.

`N[C@H](COc1cncc(/C=C/c2ccncc2)c1)Cc1csc2ccccc12` showed a half-life [17] of 150 min, a Vd [18] of 3.6 L/kg and a clearance [19] of 16.7 mL/min/kg. The Cmax [20] was 620 ng/mL and the bioavailability [21] was 43%.
